Experimental data: patent US11427553B2, “Dihydrooxadiazinones” (Bayer Aktiengesellschaft, priority 2017, dated 2022)

Columns and labels:
[1] = target: human full length PDE3A (Homo sapiens (Human), UniProt Q14432); experiment: Assay 4 PDE3A enzyme inhibition (3H-cAMP SPA); assay type: biochemical; conditions: Sf9 cell extract
How it was run: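 Enzyme: Sf9 extract with overexpressed full-length PDE3A; substrate [8-3H]cAMP, 0.025 μCi/well; 60 min, room temperature, Tris/HCl pH 7.5 buffer with MgCl2, EDTA, BSA.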

[2] = target: human full length PDE3B (Homo sapiens (Human), UniProt Q13370); experiment: Assay 5 PDE3B enzyme inhibition (3H-cAMP SPA); assay type: biochemical; conditions: Sf9 cell extract
How it was run: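 Hydrolysis of tritiated cAMP by Sf9-expressed full-length human PDE3B proceeded 60 min at room temperature in Tris buffer pH 7.5 containing Mg2+, EDTA and BSA, with enzyme dilution keeping substrate consumption below 70%. IC50 derived from percent activity versus log compound concentration.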

[3] = tested on: HeLa cells; experiment: Assay 1 cell proliferation measurement (CTG, 72 h), HeLa; assay type: cell-based, human; conditions: Homo sapiens, HeLa; Assay 1, 72 h, Cell Titer Glo; read-out: HeLa IC50 [nM] (Cervical cancer)
How it was run: (§1)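 CellTiter-Glo luminescence was read at treatment start (0 h plate) and after 72 h compound exposure at 37 °C. Doses were 2.5-fold steps, ten concentrations, top 100 nM final, 0.3% DMSO. Growth inhibition was scaled between 0 h and vehicle values, and IC50 was obtained by 4-parameter fitting.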

[4] = tested on: SK-MEL-3 cells; experiment: Assay 1 cell proliferation measurement (CTG, 72 h), SK-MEL-3; assay type: cell-based, human; conditions: Homo sapiens, SK-MEL3; Assay 1, 72 h, Cell Titer Glo; read-out: SK-MEL-3 IC50 [nM] (melanoma)
How it was run: as §1

Sequence of human full length PDE3B (Q13370 whole entry): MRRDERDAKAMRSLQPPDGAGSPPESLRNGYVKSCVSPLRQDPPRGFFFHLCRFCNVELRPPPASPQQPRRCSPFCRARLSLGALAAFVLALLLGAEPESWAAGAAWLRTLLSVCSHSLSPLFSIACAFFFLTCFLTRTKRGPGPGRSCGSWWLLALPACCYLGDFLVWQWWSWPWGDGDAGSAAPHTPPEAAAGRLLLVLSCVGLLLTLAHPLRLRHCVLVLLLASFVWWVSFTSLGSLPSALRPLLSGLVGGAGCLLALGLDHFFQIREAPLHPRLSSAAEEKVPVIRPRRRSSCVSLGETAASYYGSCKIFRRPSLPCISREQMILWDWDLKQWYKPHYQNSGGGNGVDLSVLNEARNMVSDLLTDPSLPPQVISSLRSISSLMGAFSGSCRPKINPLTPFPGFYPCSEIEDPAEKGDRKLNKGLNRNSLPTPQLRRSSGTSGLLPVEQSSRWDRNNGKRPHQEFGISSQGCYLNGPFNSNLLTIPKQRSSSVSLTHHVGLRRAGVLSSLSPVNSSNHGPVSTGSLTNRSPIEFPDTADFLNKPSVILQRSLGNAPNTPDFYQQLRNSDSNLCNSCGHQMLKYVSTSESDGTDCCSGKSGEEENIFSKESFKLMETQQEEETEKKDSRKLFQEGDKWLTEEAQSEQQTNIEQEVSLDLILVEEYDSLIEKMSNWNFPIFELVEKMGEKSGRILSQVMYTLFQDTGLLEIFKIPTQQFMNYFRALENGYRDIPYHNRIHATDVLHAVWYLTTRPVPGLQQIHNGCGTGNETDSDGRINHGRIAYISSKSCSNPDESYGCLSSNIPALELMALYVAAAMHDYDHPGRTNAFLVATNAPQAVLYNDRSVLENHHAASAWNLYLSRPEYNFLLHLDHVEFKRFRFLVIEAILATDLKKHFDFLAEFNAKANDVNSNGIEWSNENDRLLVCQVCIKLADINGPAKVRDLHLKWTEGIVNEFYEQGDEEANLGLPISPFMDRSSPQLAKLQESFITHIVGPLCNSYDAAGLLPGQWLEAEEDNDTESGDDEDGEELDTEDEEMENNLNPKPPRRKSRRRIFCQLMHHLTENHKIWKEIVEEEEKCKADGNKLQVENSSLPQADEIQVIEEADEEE
Sequence of human full length PDE3A (Q14432 whole entry): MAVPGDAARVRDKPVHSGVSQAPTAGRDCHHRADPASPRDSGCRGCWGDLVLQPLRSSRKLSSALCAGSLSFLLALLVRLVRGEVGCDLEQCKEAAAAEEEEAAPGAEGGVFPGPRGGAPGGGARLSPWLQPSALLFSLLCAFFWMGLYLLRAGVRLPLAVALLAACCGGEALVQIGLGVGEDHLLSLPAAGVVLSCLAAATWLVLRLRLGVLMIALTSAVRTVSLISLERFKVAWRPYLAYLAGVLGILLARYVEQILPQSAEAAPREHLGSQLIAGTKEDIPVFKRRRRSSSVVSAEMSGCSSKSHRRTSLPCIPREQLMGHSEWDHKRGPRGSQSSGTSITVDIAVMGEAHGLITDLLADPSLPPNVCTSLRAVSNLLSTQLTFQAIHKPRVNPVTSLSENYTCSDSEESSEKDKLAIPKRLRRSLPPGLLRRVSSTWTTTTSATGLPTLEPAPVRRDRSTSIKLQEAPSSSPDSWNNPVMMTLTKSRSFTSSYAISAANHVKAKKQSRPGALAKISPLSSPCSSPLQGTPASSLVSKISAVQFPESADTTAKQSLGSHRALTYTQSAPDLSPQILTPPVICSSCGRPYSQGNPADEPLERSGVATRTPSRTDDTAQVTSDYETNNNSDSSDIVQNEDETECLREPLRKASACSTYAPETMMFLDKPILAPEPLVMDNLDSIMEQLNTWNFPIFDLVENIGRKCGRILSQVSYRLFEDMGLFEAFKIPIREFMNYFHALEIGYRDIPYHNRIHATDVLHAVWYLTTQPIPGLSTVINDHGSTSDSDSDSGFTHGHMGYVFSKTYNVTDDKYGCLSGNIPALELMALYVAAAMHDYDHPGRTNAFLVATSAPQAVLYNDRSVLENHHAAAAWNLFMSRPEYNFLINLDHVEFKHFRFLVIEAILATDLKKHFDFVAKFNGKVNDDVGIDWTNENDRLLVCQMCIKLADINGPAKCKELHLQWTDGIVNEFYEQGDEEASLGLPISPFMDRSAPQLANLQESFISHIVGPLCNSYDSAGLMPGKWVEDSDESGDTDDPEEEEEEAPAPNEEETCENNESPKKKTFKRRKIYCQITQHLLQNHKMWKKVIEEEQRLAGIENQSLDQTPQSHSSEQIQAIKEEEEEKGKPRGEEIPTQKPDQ

Row | IC50 [1] | IC50 [2] | IC50 [3] | IC50 [4] | SMILES
1 | 190 nM | 180 nM | 27 nM | 40 nM | C[C@@H]1OC(=O)NN=C1c1ccc(-c2ccc(F)c(F)c2F)c(C(F)(F)F)c1 [Example 170, (6S)-6-Methyl-5-[2′,3′,4′-trifluoro-2-(trifluoromethyl)[1,1′-biphenyl]-4-yl]-3,6-dihydro-2H-1,3,4-oxadiazin-2-one]
2 | 150 nM | 210 nM | 18 nM | 31 nM | C[C@@H]1OC(=O)NN=C1c1ccc(-c2cc(F)ccc2F)c(C(F)(F)F)c1 [Example 171, (6S)-5-[2′,5′-Difluoro-2-(trifluoromethyl)[1,1′-biphenyl]-4-yl]-6-methyl-3,6-dihydro-2H-1,3,4-oxadiazin-2-one]
3 | 290 nM | 520 nM | 37 nM | 48 nM | C[C@@H]1OC(=O)NN=C1c1ccc(-c2ccccc2C#N)c(C(F)(F)F)c1 [Example 172, 4′-[(6S)-6-Methyl-2-oxo-3,6-dihydro-2H-1,3,4-oxadiazin-5-yl]-2′-(trifluoromethyl)[1,1′-biphenyl]-2-carbonitrile]
4 | 58 nM | 58 nM | 15 nM | 27 nM | C[C@@H]1OC(=O)NN=C1c1ccc(-c2ccc3[nH]ccc3c2)c(C(F)(F)F)c1 [Example 173, (6S)-5-[4-(1H-Indol-5-yl)-3-(trifluoromethyl)phenyl]-6-methyl-3,6-dihydro-2H-1,3,4-oxadiazin-2-one]
5 | 26 nM | 24 nM | 6 nM | 3 nM | C[C@@H]1OC(=O)NN=C1c1ccc(-c2cccc(O)c2)c(C(F)(F)F)c1 [Example 175, (6S)-5-[3′-Hydroxy-2-(trifluoromethyl)[1,1′-biphenyl]-4-yl]-6-methyl-3,6-dihydro-2H-1,3,4-oxadiazin-2-one]
6 | 37 nM | 35 nM | 2 nM | 4 nM | C[C@@H]1OC(=O)NN=C1c1ccc(-c2cccc(N)c2)c(C(F)(F)F)c1 [Example 176, (6S)-5-[3′-Amino-2-(trifluoromethyl)[1,1′-biphenyl]-4-yl]-6-methyl-3,6-dihydro-2H-1,3,4-oxadiazin-2-one]
7 | 160 nM | 130 nM | 12 nM | 17 nM | C[C@@H]1OC(=O)NN=C1c1ccc(-c2ccc(F)cc2F)c(C(F)(F)F)c1 [Example 177, (6S)-5-[2′,4′-Difluoro-2-(trifluoromethyl)[1,1′-biphenyl]-4-yl]-6-methyl-3,6-dihydro-2H-1,3,4-oxadiazin-2-one]
8 | 140 nM | 130 nM | 13 nM | 19 nM | Cc1ccc(-c2ccc(C3=NNC(=O)O[C@H]3C)cc2C(F)(F)F)cc1F [Example 178, (6S)-5-[3′-Fluoro-4′-methyl-2-(trifluoromethyl)[1,1′-biphenyl]-4-yl]-6-methyl-3,6-dihydro-2H-1,3,4-oxadiazin-2-one]
9 | 140 nM | 110 nM | 8 nM | 15 nM | C[C@@H]1OC(=O)NN=C1c1ccc(-c2ccccc2F)c(C(F)(F)F)c1 [Example 179, (6S)-5-[2′-Fluoro-2-(trifluoromethyl)[1,1′-biphenyl]-4-yl]-6-methyl-3,6-dihydro-2H-1,3,4-oxadiazin-2-one]
10 | 250 nM | 250 nM | 36 nM | 48 nM | COc1ccccc1-c1ccc(C2=NNC(=O)O[C@H]2C)cc1C(F)(F)F [Example 180, (6S)-5-[2′-Methoxy-2-(trifluoromethyl)[1,1′-biphenyl]-4-yl]-6-methyl-3,6-dihydro-2H-1,3,4-oxadiazin-2-one]
11 | 74 nM | 77 nM | 3 nM | 6 nM | C[C@@H]1OC(=O)NN=C1c1ccc(-c2cccc(F)c2)c(C(F)(F)F)c1 [Example 181, (6S)-5-[3′-Fluoro-2-(trifluoromethyl)[1,1′-biphenyl]-4-yl]-6-methyl-3,6-dihydro-2H-1,3,4-oxadiazin-2-one]
12 | 220 nM | 260 nM | 39 nM | 54 nM | Cc1ccncc1-c1ccc(C2=NNC(=O)O[C@H]2C)cc1C(F)(F)F [Example 182, (6S)-6-Methyl-5-[4-(4-methylpyridin-3-yl)-3-(trifluoromethyl)phenyl]-3,6-dihydro-2H-1,3,4-oxadiazin-2-one]
13 | 200 nM | 170 nM | 15 nM | 22 nM | Cc1cnccc1-c1ccc(C2=NNC(=O)O[C@H]2C)cc1C(F)(F)F [Example 183, (6S)-6-Methyl-5-[4-(3-methylpyridin-4-yl)-3-(trifluoromethyl)phenyl]-3,6-dihydro-2H-1,3,4-oxadiazin-2-one]
14 | 66 nM | 57 nM | 5 nM | 6 nM | Cc1cc(-c2ccc(C3=NNC(=O)O[C@H]3C)cc2C(F)(F)F)ccn1 [Example 184, (6S)-6-Methyl-5-[4-(2-methylpyridin-4-yl)-3-(trifluoromethyl)phenyl]-3,6-dihydro-2H-1,3,4-oxadiazin-2-one]
15 | 49 nM | 48 nM | 4 nM | 6 nM | C[C@@H]1OC(=O)NN=C1c1ccc(-c2ccc3cc[nH]c3c2)c(C(F)(F)F)c1 [Example 185, (6S)-5-[4-(1H-Indol-6-yl)-3-(trifluoromethyl)phenyl]-6-methyl-3,6-dihydro-2H-1,3,4-oxadiazin-2-one]
16 | 81 nM | 100 nM | 23 nM | 40 nM | COc1ccc(-c2ccc(C3=NNC(=O)O[C@H]3C)cc2C(F)(F)F)cn1 [Example 187, (6S)-5-[4-(6-Methoxypyridin-3-yl)-3-(trifluoromethyl)phenyl]-6-methyl-3,6-dihydro-2H-1,3,4-oxadiazin-2-one]
17 | 90 nM | 100 nM | 22 nM | 38 nM | COc1ccc(-c2ccc(C3=NNC(=O)O[C@H]3C)cc2C(F)(F)F)cc1 [Example 188, (6S)-5-[4′-Methoxy-2-(trifluoromethyl)[1,1′-biphenyl]-4-yl]-6-methyl-3,6-dihydro-2H-1,3,4-oxadiazin-2-one]
18 | 190 nM | 200 nM | 6 nM | 12 nM | Cc1ccc(-c2ccc(C3=NNC(=O)O[C@H]3C)cc2C(F)(F)F)cc1 [Example 189, (6S)-6-Methyl-5-[4′-methyl-2-(trifluoromethyl)[1,1′-biphenyl]-4-yl]-3,6-dihydro-2H-1,3,4-oxadiazin-2-one]
19 | 195 nM | 215 nM | 5 nM | 9 nM | O=C1NN=C(c2cc(F)c(-c3cnn(C(F)F)c3)c(C(F)(F)F)c2)CO1 [Example 193, 5-{4-[1-(Difluoromethyl)-1H-pyrazol-4-yl]-3-fluoro-5-(trifluoromethyl)phenyl}-3,6-dihydro-2H-1,3,4-oxadiazin-2-one]
20 | 650 nM | 803 nM | 5 nM | 10 nM | O=C1NN=C(c2ccc(CN3CCOCC3)c(C(F)(F)F)c2)CO1 [Example 197, 5-{4-[(Morpholin-4-yl)methyl]-3-(trifluoromethyl)phenyl}-3,6-dihydro-2H-1,3,4-oxadiazin-2-one]
21 | 34 nM | 66 nM | 10 nM | 22 nM | Cc1ccc(-c2ccc(C3=NNC(=O)OC3)cc2C(F)F)cn1 [Example 200, 5-[3-(Difluoromethyl)-4-(6-methylpyridin-3-yl)phenyl]-3,6-dihydro-2H-1,3,4-oxadiazin-2-one]
22 | 86 nM | 77 nM | 3 nM | 9 nM | O=C1NN=C(c2ccc(C3=CCCC3)c(C(F)F)c2)CO1 [Example 201, 5-[4-(Cyclopent-1-en-1-yl)-3-(difluoromethyl)phenyl]-3,6-dihydro-2H-1,3,4-oxadiazin-2-one]
23 | 76 nM | 63 nM | 5 nM | 12 nM | O=C1NN=C(c2ccc(-c3cn[nH]c3)c(C(F)F)c2)CO1 [Example 202, 5-(3-(difluoromethyl)-4-(1H-pyrazol-4-yl)phenyl)-3H-1,3,4-oxadiazin-2(6H)-one]
24 | 53 nM | 123 nM | 4 nM | 5 nM | O=C1NN=C(c2ccc(NC3CCOCC3)c(C(F)(F)F)c2)CO1 [Example 205, 5-{4-[(Oxan-4-yl)amino]-3-(trifluoromethyl)phenyl}-3,6-dihydro-2H-1,3,4-oxadiazin-2-one]
25 | 275 nM | 533 nM | 7 nM | 7 nM | O=C1NN=C(c2ccc(NC[C@H](O)C(F)(F)F)c(C(F)(F)F)c2)CO1 [Example 209, 5-[4-{[3,3,3-Trifluoro-(2S)-hydroxypropyl]amino}-3-(trifluoromethyl)phenyl]-3,6-dihydro-2H-1,3,4-oxadiazin-2-one]
26 | 140 nM | 363 nM | 6 nM | 8 nM | CC(C)(O)CNc1ccc(C2=NNC(=O)OC2)cc1C(F)(F)F [Example 210, 5-{4-[(2-Hydroxy-2-methylpropyl)amino]-3-(trifluoromethyl)phenyl}-3,6-dihydro-2H-1,3,4-oxadiazin-2-one]
